Patent US7902204B2 (priority 2003, dated 2011)

test system: HIV-1 single-round infectious reporter virus; experiment: Single-round infectious HIV-1 luciferase reporter virus infection of HeLa CD4 CCR5 cells; type: cell-based; conditions: Human immunodeficiency virus 1, HeLa-CD4/CCR5, 72 h, read-out: EC50 Group from Table 1
Protocol: • Virus production—Human embryonic Kidney cell line, 293, propagated in Dulbecco's Modified Eagle Medium (Life Technologies, Gaithersburg, Md.) containing 10% fetal Bovine serum (FBS, Sigma, St. Louis, Mo.). • Virus infection—Human epithelial cell line, HeLa, expressing the HIV-1 receptors CD4 and CCR5 was propagated in Dulbecco's Modified Eagle Medium (Life Technologies, Gaithersburg, Md.) containing 10% fetal Bovine serum (FBS, Sigma, St. Louis, Mo.) and supplemented with 0.2 mg/mL Geneticin (Life Technologies, Gaithersburg, Md.) and 0.4 mg/mL Zeocin (Invitrogen, Carlsbad, Calif.). Virus-Single-round infectious reporter virus was produced by co-transfecting human embryonic Kidney 293 cells with an HIV-1 envelope DNA expression vector and a proviral cDNA containing an envelope deletion mutation and the luciferase reporter gene inserted in place of HIV-1 nef sequences (Chen et al, Ref 41). Transfections were performed using lipofectAMINE PLUS reagent as described by the manufacturer (Life Technologies, Gaithersburg, Md.). Experiment • 1. Compound was added to HeLa CD4 CCR5 cells plated in 96 well plates at a cell density of 1×10^4 cells per well in 100 μl Dulbecco's Modified Eagle Medium containing 10% fetal Bovine serum at a concentration of <20 μM. • 2. 100 μl of single-round infectious reporter virus in Dulbecco's Modified Eagle Medium was then added to the plated cells and compound at an approximate multiplicity of infection (MOI) of 0.01, resulting in a final volume of 200 μl per well and a final compound concentration of <10 μM. • 3. Samples were harvested 72 h after infection. • 4. Viral infection was monitored by measuring luciferase expression from viral DNA in the infected cells using a luciferase reporter gene assay kit (Roche Molecular Biochemicals, Indianapolis, Ind.). Infected cell supernatants were removed and 50 μl of Dulbecco's Modified Eagle Medium (without phenol red) and 50 μl of luciferase assay reagent reconstituted as described by the manufacturer (Roche Molecular Biochemicals, Indianapolis, Ind.) was added per well. Luciferase activity was then quantified by measuring luminescence using a Wallac microbeta scintillation counter. • 5. The percent inhibition for each compound was calculated by quantifying the level of luciferase expression in cells infected in the presence of each compound as a percentage of that observed for cells infected in the absence of compound and subtracting such a determined value from 100. • 6. An EC50 provides a method for comparing the antiviral potency of the compounds of this invention. The effective concentration for fifty percent inhibition (EC50) was calculated with the Microsoft Excel Xlfit curve fitting software. For each compound, curves were generated from percent inhibition calculated at 10 different concentrations by using a four paramenter logistic model (model 205). Table 1 is the key for the data in Tables 2-4.

| SMILES | EC50 |
| --- | --- |
| N#CC(C(=O)c1c[nH]c2c(Cl)ncnc12)N1CCN(C(=O)c2ccccc2)CC1 (stereo not shown) [Example 1, 2-(4-Benzoyl-piperazin-1-yl)-3-(4-chloro-5H-pyrrolo [3,2-d]pyrimidin-7-yl)-3-oxo-propionitrile] | < 1 µM |
| O=C(C(=O)N1CCN(C(=O)c2ccccc2)CC1)c1c[nH]c2c(Cl)ncnc12 [Example 2, 1-(4-Benzoyl-piperazin-1-yl)-2-(4-chloro-5H-pyrrolo[3,2-d]pyrimidin-7-yl)-ethane-1,2-dione] | < 1 µM |
| Cc1ccn(-c2ncnc3c(C(=O)C(=O)N4CCN(C(=O)c5ccccc5)CC4)c[nH]c23)n1 [Example 3, 1-(4-Benzoyl-piperazin-1-yl)-2-[4-(3-methyl-pyrazol-1-yl)-5H-pyrrolo[3,2-d]pyrimidin-7-yl]-ethane-1,2-dione] | < 1 µM |
| Cc1cnn(-c2ncnc3c(C(=O)C(=O)N4CCN(C(=O)c5ccccc5)CC4)c[nH]c23)c1 [Example 4, 1-(4-Benzoyl-piperazin-1-yl)-2-[4-(4-methyl-pyrazol-1-yl)-5H-pyrrolo[3,2-d]pyrimidin-7-yl]-ethane-1,2-dione] | < 1 µM |
| COc1ncnc2c(C(=O)C(=O)N3CCN(C(=O)c4ccccc4)CC3)c[nH]c12 [Example 5, 1-(4-Benzoyl-piperazin-1-yl)-2-(4-methoxy-5H-pyrrolo[3,2-d]pyrimidin-7-yl)-ethane-1,2-dione] | < 1 µM |
| O=C(C(=O)N1CCN(C(=O)c2ccccc2)CC1)c1c[nH]c2c(-n3cccn3)ncnc12 [Example 6, 1-(4-Benzoyl-piperazin-1-yl)-2-(4-pyrazol-1-yl-5H -pyrrolo[3,2-d]pyrimidin-7-yl)-ethane-1,2-dione] | < 1 µM |
| Cc1ncn(-c2ncnc3c(C(=O)C(=O)N4CCN(C(=O)c5ccccc5)CC4)c[nH]c23)n1 [Example 7, 1-(4-Benzoyl-piperazin-1-yl)-2-[4-(3-methyl-[1,2,4]triazol-1-yl)-5H-pyrrolo[3,2-d]pyrimidin-7-yl]-ethane-1,2-dione] | < 1 µM |
| O=C(C(=O)N1CCN(C(=O)c2ccccc2)CC1)c1c[nH]c2c(-n3nccn3)ncnc12 [Example 8, 1-(4-(2H-1,2,3-Triazol-2-yl)-5H-pyrrolo[3,2-d]pyrimidin-7-yl)-2-(4-benzoylpiperazin-1-yl)ethane-1,2-dione] | < 1 µM |
| O=C(O)c1ccn(-c2ncnc3c(C(=O)C(=O)N4CCN(C(=O)c5ccccc5)CC4)c[nH]c23)n1 [Example 9, 1-{7-[2-(4-Benzoyl-piperazin-1-yl)-2-oxo-acetyl]-5H-pyrrolo[3,2-d]pyrimidin-4-yl}-1H-pyrazole-3-carboxylic Acid] | < 1 µM |
| CCOc1ncnc2c(C(=O)C(=O)N3CCN(C(=O)c4ccccc4)CC3)c[nH]c12 [Example 10, 1-(4-Benzoylpiperazin-1-yl)-2-(4-ethoxy-5H-pyrrolo[3,2-d]pyrimidin-7-yl)ethane-1,2-dione] | < 1 µM |
| CC(=O)c1ncnc2c(C(=O)C(=O)N3CCN(C(=O)c4ccccc4)CC3)c[nH]c12 [Example 11, 1-(4-Acetyl-5H-pyrrolo[3,2-d]pyrimidin-7-yl)-2-(4-benzoylpiperazin-1-yl)ethane-1,2-dione] | < 1 µM |
| N#Cc1ncnc2c(C(=O)C(=O)N3CCN(C(=O)c4ccccc4)CC3)c[nH]c12 [Example 12, 7-(2-(4-Benzoylpiperazin-1-yl)-2-oxoacetyl)-5H-pyrrolo[3,2-d]pyrimidine-4-carbonitrile] | < 1 µM |
| CN(C)C(=O)c1ccn(-c2ncnc3c(C(=O)C(=O)N4CCN(C(=O)c5ccccc5)CC4)c[nH]c23)n1 [Example 13, 1-(7-(2-(4-Benzoylpiperazin-1-yl)-2-oxoacetyl)-5H -pyrrolo[3,2-d]pyrimidin-4-yl)-N,N-dimethyl-1H-pyrazole-3-carboxamide] | < 1 µM |
| CN1CCN(C(=O)c2ccn(-c3ncnc4c(C(=O)C(=O)N5CCN(C(=O)c6ccccc6)CC5)c[nH]c34)n2)CC1 [Example 14, 1-(4-Benzoylpiperazin-1-yl)-2-(4-(3-(1-methylpiperazine-4-carbonyl)-1H-pyrazol-1-yl)-5H-pyrrolo[3,2-d]pyrimidin-7-yl)ethane-1,2-dione] | < 1 µM |
| O=C(C(=O)N1CCN(C(=O)c2ccccc2)CC1)c1c[nH]c2c(-n3ccc(-c4ccccc4)n3)ncnc12 [Example 15, 1-(4-Benzoylpiperazin-1-yl)-2-(4-(3-phenyl-1H -pyrazol-1-yl)-5H-pyrrolo[3,2-d]pyrimidin-7-yl)ethane-1,2-dione] | < 1 µM |
| O=C(C(=O)N1CCN(C(=O)c2ccccc2)CC1)c1c[nH]c2c(-n3ccc(-c4ccc(F)cc4)n3)ncnc12 [Example 16, 1-(4-Benzoylpiperazin-1-yl)-2-(4-(3-(4-fluorophenyl)-1H-pyrazol-1-yl)-5H-pyrrolo[3,2-d]pyrimidin-7-yl)ethane-1,2-dione] | < 1 µM |
| COc1ccc(-c2ccn(-c3ncnc4c(C(=O)C(=O)N5CCN(C(=O)c6ccccc6)CC5)c[nH]c34)n2)cc1 [Example 17, 1-(4-Benzoylpiperazin-1-yl)-2-(4-(3-(4-methoxyphenyl)-1H-pyrazol-1-yl)-5H-pyrrolo[3,2-d]pyrimidin-7-yl)ethane-1,2-dione] | < 1 µM |
| COc1ccccc1-c1ccn(-c2ncnc3c(C(=O)C(=O)N4CCN(C(=O)c5ccccc5)CC4)c[nH]c23)n1 [Example 18, 1-(4-Benzoylpiperazin-1-yl)-2-(4-(3-(2-methoxyphenyl)-1H-pyrazol-1-yl)-5H-pyrrolo[3,2-d]pyrimidin-7-yl)ethane-1,2-dione] | < 1 µM |
| O=C(C(=O)N1CCN(C(=O)c2ccccc2)CC1)c1c[nH]c2c(-n3ccc(-c4cccc(C(F)(F)F)c4)n3)ncnc12 [Example 19, 1-(4-Benzoylpiperazin-1-yl)-2-(4-(3-(3-(trifluoromethyl)phenyl)-1H-pyrazol-1-yl)-5H-pyrrolo[3,2-d]pyrimidin-7-yl)ethane-1,2-dione] | < 1 µM |
| O=C(C(=O)N1CCN(C(=O)c2ccccc2)CC1)c1c[nH]c2c(-n3cncn3)ncnc12 [Example 20, 1-(4-(1H-1,2,4-Triazol-1-yl)-5H-pyrrolo[3,2-d]pyrimidin-7-yl)-2-(4-benzoylpiperazin-1-yl)ethane-1,2-dione] | < 1 µM |
| O=C(C(=O)N1CCN(C(=O)c2ccccc2)CC1)c1c[nH]c2c(-n3ccnn3)ncnc12 [Example 21, 1-(4-(1H-1,2,3-Triazol-1-yl)-5H-pyrrolo[3,2-d]pyrimidin-7-yl)-2-(4-benzoylpiperazin-1-yl)ethane-1,2-dione] | < 1 µM |
| O=C(C(=O)N1CCN(C(=O)c2ccccc2)CC1)c1c[nH]c2c(-c3cc[nH]n3)ncnc12 [Example 22, 1-(4-(1H-Pyrazol-3-yl)-5H-pyrrolo[3,2-d]pyrimidin-7-yl)-2-(4-benzoylpiperazin-1-yl)ethane-1,2-dione] | < 1 µM |
| O=C(C(=O)N1CCN(C(=O)c2ccccc2)CC1)c1c[nH]c2c(-c3ccccn3)ncnc12 [Example 24, 1-(4-Benzoylpiperazin-1-yl)-2-(4-(pyridin-2-yl)-5H -pyrrolo[3,2-d]pyrimidin-7-yl)ethane-1,2-dione] | < 1 µM |
| O=C(C(=O)N1CCN(C(=O)c2ccccc2)CC1)c1c[nH]c2c(-c3cccnc3)ncnc12 [Example 25, 1-(4-Benzoylpiperazin-1-yl)-2-(4-(pyridin-3-yl)-5H -pyrrolo[3,2-d]pyrimidin-7-yl)ethane-1,2-dione] | < 1 µM |
| O=C(C(=O)N1CCN(C(=O)c2ccccc2)CC1)c1c[nH]c2c(-c3ccncc3)ncnc12 [Example 26, 1-(4-Benzoylpiperazin-1-yl)-2-(4-(pyridin-4-yl)-5H -pyrrolo[3,2-d]pyrimidin-7-yl)ethane-1,2-dione] | < 1 µM |
| O=C(C(=O)N1CCN(C(=O)c2ccccc2)CC1)c1c[nH]c2c(-c3cnccn3)ncnc12 [Example 27, 1-(4-Benzoylpiperazin-1-yl)-2-(4-(pyrazin-2-yl)-5H -pyrrolo[3,2-d]pyrimidin-7-yl)ethane-1,2-dione] | < 1 µM |
| O=C(C(=O)N1CCN(C(=O)c2ccccc2)CC1)c1c[nH]c2c(-c3cncnc3)ncnc12 [Example 28, 1-(4-Benzoylpiperazin-1-yl)-2-(4-(pyrimidin-5-yl)-5H-pyrrolo[3,2-d]pyrimidin-7-yl)ethane-1,2-dione] | < 1 µM |
| O=C(C(=O)N1CCN(C(=O)c2ccccc2)CC1)c1c[nH]c2c(-c3ccnnc3)ncnc12 [Example 29, 1-(4-Benzoylpiperazin-1-yl)-2-(4-(pyridazin-4-yl)-5H-pyrrolo[3,2-d]pyrimidin-7-yl)ethane-1,2-dione] | < 1 µM |
